Assay results from article PMC8951328, “New Metabolites from the Marine Sponge Scopalina hapalia Collected in Mayotte Lagoon” (Marine Drugs, 2022).
pIC50: −log10 of the molar value.

Target: T1, yeast proteasome (Saccharomyces cerevisiae, UniProt P30656)
T1 construct: gene PRE2; yeast proteasome (TUM Groll group); with other subunits of the yeast proteasome
T1 sequence (P30656 76-287): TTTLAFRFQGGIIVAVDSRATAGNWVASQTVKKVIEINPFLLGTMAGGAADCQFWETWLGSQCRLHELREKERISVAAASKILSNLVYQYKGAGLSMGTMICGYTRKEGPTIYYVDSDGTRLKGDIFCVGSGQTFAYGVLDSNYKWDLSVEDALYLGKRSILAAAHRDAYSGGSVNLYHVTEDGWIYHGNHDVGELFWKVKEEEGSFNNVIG
Assay: fluorescence intensity assay with Suc-Leu-Leu-Val-Tyr-AMC substrate
Assay type: biochemical

COc1ccc(C[C@H](NC(=O)[C@H](C)NC(=O)CN2CCOCC2)C(=O)N[C@@H](Cc2ccccc2)C(=O)[C@@]2(C)CO2)cc1 [ONX-0914] was tested. Which pIC50 did it give?
Its pIC50 is 10.44.
